Assay results from US8232299B2, “Phthalimide derivatives that influence cellular vesicular systems, pharmaceutical compositions, and use thereof” (Avidin Kft., priority 2007, dated 2012).

How the values were obtained:
SEC22b protein = molecular target: T1, SEC22b protein (Homo sapiens, UniProt O75396); test: binding to vesicle movement protein
T1 sequence (O75396 1-215): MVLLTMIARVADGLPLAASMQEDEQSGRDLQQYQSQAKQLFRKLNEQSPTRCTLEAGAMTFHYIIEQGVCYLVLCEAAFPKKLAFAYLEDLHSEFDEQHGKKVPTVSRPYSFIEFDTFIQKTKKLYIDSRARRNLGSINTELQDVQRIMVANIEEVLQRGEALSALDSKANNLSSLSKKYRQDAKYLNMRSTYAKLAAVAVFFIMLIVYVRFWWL

human melanoma (HT168M1) = test: spleen/liver animal model, melanoma cells injected into spleen; type: in vivo, CB17/scid mice
Experimental: Studies were conducted in the spleen/liver animal model. From 40 adult male CB17/scid mice, born with immunodeficiency, 20 were randomly selected, and they were further divided into two groups. Animals were marked on their ear one by one. 10 of the selected mice were treated with compound 3b (40 mg/kg) for 5 days (PRETREATED/3b), the other 10 animals were treated per os by gavage with appropriate dilution of DMSO serving as the carrier (PRETREATED/control). On the 5th treatment day all the 40 animals were anesthetized by Nembutal (75 mg/kg), and 4×10^4 cells from human melanoma (HT168M1) was injected into their spleens (i.s.). Local bleeding during the implantation was treated with Gelaspon resorbable gelatin sponge. On the 7th day after the implantation the non-treated 20 mice were randomly assigned into two groups and their ear was marked. 10 mice were treated from this time on with compound 3b (40 mg/kg) (POSTTREATED/3b), the other 10 were treated with appropriate dilution of the carrier (DMSO) with similar frequency (POSTTREATED/control) per os once a day five times per week for three weeks. Pretreated groups were not treated after the implantation. Body weight changes were monitored once a week for each animal. 31 days after implantation animals were sacrificed by bleeding in Nembutal (75 mg/kg) anesthesia. […]

TNFα [1] = test: early (preformed) TNFα secretion of RAW.264.7 macrophages, ELISA; type: cell-based, mice
Source text: Matured macrophages produce tumor necrosis factor (TNF-alpha or TNFα) in response to bacterial lipopolysaccharide (E. coli LPS, Sigma) stimulation. TNFα production is induced by […] to the toll-like receptor 4 (TLR-4), the lipopolysaccharide binding protein (LBP), and the CD14 receptor. Secretion of the TNFα is biphasic. For one hour after the stimulation macrophages respond with release of preformed TNFα. Meanwhile, the NF-kappaB signaling pathway turns on the TNFα gene transcription reaching maximum after approximately 8 hours.
(§1) In our experiments we investigated the early TNFα secretion of RAW.264.7 matured mice macrophages. This cell line stores large amount of preformed TNFα. […] Culture supernatant was collected and TNFα content was determined by R&D Duoset ELISA kit (detection limit<62.5 pg/ml). […] So the reduced TNFα level was due to inhibition of the release of preformed TNFα and not due to dying of the cells.
In this example two controls (diluent only—ethanol incubated) and four treated samples were analyzed.

[2] = test system: pseudorabies Bartha type viruses; type: cell-based, pseudorabies virus; details: 100 μM
[3] = test system: RAW.264.7 matured mice macrophages; test: MTS test of vitality / metabolic activity of the macrophages; type: cell-based
Experimental: as §1
Effects of compound 3a and compound 3b on TNFα secretion and on NF-kappaB activation could have been based on cytotoxicity as well. To exclude that, we determined the metabolic activity of the cells, which is proportional to the cell number, by MTS test 8 hours after the treatment.

[4] = test system: HepG2 (human hepatocellular carcinoma); test: cytotoxic effect on hepatocellular carcinoma cell line, MTS test, 24 hours; type: cell-based; details: 24 hours incubation, already at 20 and 50 μM concentrations
Experimental: In these experiments HepG2 (human hepatocellular carcinoma) and MCF7 (Human breast adenocarcinoma) cells were used. They were cultured in the following media: For HepG2 Dulbecco's Modified Eagle Medium (D-MEM) (high glucose) (Gibco BRL, Carlsbad, Calif., USA), penicillin (50 IU/ml)-streptomycin ([…]), 10% fetal bovine serum; for MCF7 (Human breast adenocarcinoma) 1:1 mixture of Dulbecco's Modified Eagle Medium (D-MEM) (high glucose) (Gibco BRL, Carlsbad, Calif., USA) and Nutrient Mixture F-12 Ham (Sigma, St. Louis, Mo., USA), penicillin (50 IU/ml)-streptomycin ([…]), 10% fetal bovine serum. Experiments were performed as described in Example 9. with the difference that the incubation time was 24 hours in this case. After the incubation period MTS test (3-(4,5-dimethylthiazol-2-yl)-5-(3-carboxymethoxyphenyl)-2-(4-sulfophenyl)-2H-tetrazolium) (Promega, Madison, Wis., USA) was performed as described above.

TNFα [5] = test: late phase (transcriptionally induced) TNFα secretion of macrophages, ELISA; type: cell-based, mice; details: preformed TNFα washed away after 4 hours, TNFα of next 4 hours; FIG. 3
Experimental: For the detection of late phase TNFα secretion the preformed TNFα, released after LPS induction of the macrophages, was washed away after 4 hours, and the amount of TNFα produced during the next 4 hours was determined by ELISA test. […] Results are depicted in FIG. 3.

SMILES: CCNc1c(F)c(F)c2c(c1F)C(=O)N(c1c(C(C)C)cccc1C(C)C)C2=O [Compound 3b, 2-(2,6-diisopropylphenyl)-5-(ethylamino)-4,6,7-trifluoroisoindole-1,3-dione]
- binding to SEC22b protein (SEC22b protein): can also bind to SEC22b protein
- further metastasis of the adhered cells (human melanoma (HT168M1); posttreatment 40 mg/kg per os from day 7, five times per week for three weeks, not statistically significant): slightly inhibited
- number of metastases (human melanoma (HT168M1); pretreatment 40 mg/kg per os for 5 days before implantation, p=0.05, FIG. 7): significantly reduced the number of metastases
- LPS stimulated TNFα release of the macrophages (TNFα [1]; 100 ng/ml LPS, FIG. 2b): reduces the induced TNFα release
- basal TNFα release of the macrophages (TNFα [1]; without LPS induction, FIG. 2a): able to reduce the basal TNFα release
- entry of the viruses into the cell [2]: does not inhibit the entry of the viruses into the cell
- release and spreading of the viruses in vitro [2]: does inhibit their release and thus their spreading in vitro
- plaque size (viral positive cells) ([2]; 24 hours): 2-6 cells/plaque
- vitality of the cells (MTS test) ([3]; 3 hours after the stimulation with LPS): no cell death was detected
- metabolic activity of the cells (MTS test) ([3]; 8 hours after the treatment): not found to be toxic
- effect on HepG2 cells [4]: strong effect
- late TNFα secretion of macrophages (TNFα [5]): inhibited late TNFα secretion of macrophages in a concentration dependent way
